Measurements from PMC8359193, “Summary of reference chemicals evaluated by the fish short‐term reproduction assay, OECD TG229, using Japanese Medaka, Oryzias latipes” (Journal of Applied Toxicology, 2021).
Structures can show the parent of a compound that is named as a salt.

Legend:
Japanese medaka = conditions: MMT, ref Flynn et al. (2017), cited from earlier work
[1] = test system: Japanese medaka (Oryzias latipes); experiment: Fish short-term reproduction assay (FSTRA, OECD TG229), 21-day flow-through exposure; conditions: for Fertility rate (%) / Mortality (%) Female / Mortality (%) Male / Number of fertilized eggs / Number of total eggs / SSC Female / SSC Male / VTG (ng/mg of liver) Female / VTG (ng/mg of liver) Male: 21 days; for GSI Female / GSI Male / HSI Female / HSI Male / Length Female / Length Male / Weight Female / Weight Male: at completion of exposure; for effect on fecundity (number of total eggs), in words: within the test concentrations
Protocol: The experimental studies on the FSTRA for the 16 chemicals were conducted in two laboratories in Japan, the National Institute for Environmental Studies (NIES, Lab‐1) and the Institute of Environmental Ecology, IDEA Consultants Inc. (Lab‐2), in accordance with OECD TG229 (OECD, [2012a]) (Table 1).
The NIES‐R strain of Japanese medaka (O. latipes), one of the orange‐red varieties, was used in all the 16 chemical studies. For the studies, healthy and mature male and female medakas at 16 ± 2 weeks old were selected from a single‐stock population, which were bred within the test facilities. The test fish were maintained in conditions similar to the assay for at least 7 days, and spawning status was checked during the acclimation period. On the day the chemical exposure commenced, to ensure balanced distribution of test fish between the treatment groups for the reproductive status of the fish, the replicate vessels (fish tanks), with each containing three male and female medaka, were distributed to each treatment and control group, for example, by a randomized block design based on the number of fertilized eggs laid in the last 5–7 days during the acclimation, in each assay.
The water solubility of the test chemical was also taken into consideration when deciding the highest test concentration. To set the lower concentrations, a spacing factor ranging between two and five was used. All assays included a dilution water control (DWC).
Test solutions at the selected concentrations were prepared by diluting a stock solution, which was prepared by an adequate method depending on the physicochemical properties of the test chemicals, for example, by simply mixing the test chemical in dilution water by stirring and/or sonicating for an appropriate time or by using a solid–liquid saturator. In the two laboratories, flow‐through exposure systems, in which a series of test solutions at the target concentrations can be continuously prepared and delivered to test vessels at controlled flow rates (Haselman et al., [2016]; Watanabe et al., [2017]), were used for the exposure experiments.
In the FSTRA, three mature adult males and females in a test vessel were exposed together to the test chemicals in flow‐through condition for 3 weeks. In all the assays, each treatment group, including the DWC group, contained four replicate tanks. During the exposure period, the fish were fed a sufficient amount of live brine shrimp nauplii (newly hatched Artemia sp.) for daily spawning ad libitum. Fecal material in the tanks was appropriately removed by siphoning after feeding. Water temperature of test solutions was recorded for at least one vessel in each treatment and control group every day and for all vessels at least once a week. Furthermore, dissolved oxygen and pH of test solutions were measured for all test vessels at least once a week. Mortality and abnormal behavior and appearance in the fish exposed to test chemicals were daily observed, and any fish that died were removed from the tank as soon as possible. To assess the reproductive status, all eggs females spawned were collected every day. At the completion of the chemical exposure, surviving fish in each tank were sampled.
The eggs females released on the bottom of the tank were collected by siphoning, and the egg clutches still on female abdomen were carefully picked from the body of the females captured using a small net. All the eggs collected were microscopically observed and separately counted for fertilized and unfertilized.

[2] = hepatic VTG, 21-day exposure, measured conc.

## C[C@]12CC[C@@H]3c4ccc(O)cc4CC[C@H]3[C@@H]1CC[C@@H]2O [E2, 17β‐Estradiol]
Japanese medaka; long-term exposure
  LOEC on male VTG induction: 28 ng/L
[1]; hepatic VTG, 21-day exposure
  LOEC on VTG induction in male (in molarity): 81 pM
[1]; [2]
  LOEC for VTG induction in males: 22.1 ng/L
[1]; in vivo
  LOEC on male VTG induction: times smaller than the LOEC for CMP: more than 8,000 times
  effect on male GSI, in words: significant decreasing
[1]; measured conc. 22.1 ng/L
  Fertility rate (%): 90%
  Mortality (%) Female: 0%
  Mortality (%) Male: 0%
  Number of fertilized eggs: 18
  Number of total eggs: 20 ± 2.9 /female/day
  SSC Female: 0 ± 0
  SSC Male: 109 ± 10
  VTG (ng/mg of liver) Female: 3,420 ± 991 ng/mg of liver
  VTG (ng/mg of liver) Male: 424 ± 379 ng/mg of liver
  GSI Female: 10.3%
  GSI Male: 0.82%
  HSI Female: 4.4%
  HSI Male: 2.0%
  Length Female: 36.8 mm
  Length Male: 36.4 mm
  Weight Female: 573 mg
  Weight Male: 507 mg
[1]; measured conc. 115 ng/L
  Fertility rate (%): 95%
  Mortality (%) Female: 8%
  Mortality (%) Male: 8%
  Number of fertilized eggs: 21
  Number of total eggs: 22 ± 1.5 /female/day
  SSC Female: 0 ± 0
  SSC Male: 112 ± 10
  VTG (ng/mg of liver) Female: 5,500 ± 1,370 ng/mg of liver
  VTG (ng/mg of liver) Male: 13,400 ± 1900 ng/mg of liver
  GSI Female: 11.4%
  GSI Male: 0.67%
  HSI Female: 4.3%
  HSI Male: 2.5%
  Length Female: 35.6 mm
  Length Male: 35.8 mm
  Weight Female: 517 mg
  Weight Male: 512 mg
[1]; measured conc. 553 ng/L
  Fertility rate (%): 85%
  Mortality (%) Female: 17%
  Mortality (%) Male: 8%
  Number of fertilized eggs: 9.4
  Number of total eggs: 13 ± 1.9 /female/day
  SSC Female: 0 ± 0
  SSC Male: 97 ± 14
  VTG (ng/mg of liver) Female: 18,900 ± 5,910 ng/mg of liver
  VTG (ng/mg of liver) Male: 19,900 ± 3,570 ng/mg of liver
  GSI Female: 11.2%
  GSI Male: 0.31%
  HSI Female: 4.4%
  HSI Male: 3.2%
  Length Female: 35.0 mm
  Length Male: 35.0 mm
  Weight Female: 512 mg
  Weight Male: 488 mg
[1]; 21-day exposure
  effect on fecundity (number of total eggs), in words: significant decrease

## CC/C(=C(\c1ccccc1)c1ccc(OCCN(C)C)cc1)c1ccccc1 [TAM, tamoxifen citrate]
Japanese medaka
  LOEC on female VTG (reduction): 1.3 µg/L
[1]; both, NIES-R, Japanese medaka (Oryzias latipes), in vivo
  time from initiation of treatment to drastic reduction of daily fecundity: ≤ 3 days
[1]; [2]
  LOEC for VTG induction in males: 10000 ng/L
  LOEC for decrease of VTG in females: 10.0 µg/L
[1]; in vivo
  LOEC on female VTG: times lower than that for RAL: 70 times
[1]; measured conc. 10.0 μg/L
  Fertility rate (%): 94%
  Mortality (%) Female: 0%
  Mortality (%) Male: 0%
  Number of fertilized eggs: 12
  Number of total eggs: 13 ± 1.1 /female/day
  SSC Female: 0 ± 0
  SSC Male: 85 ± 11
  VTG (ng/mg of liver) Female: 666 ± 96 ng/mg of liver
  VTG (ng/mg of liver) Male: 181 ± 30.0 ng/mg of liver
  GSI Female: 7.3%
  GSI Male: 0.89%
  HSI Female: 3.6%
  HSI Male: 2.2%
  Length Female: 32.3 mm
  Length Male: 33.6 mm
  Weight Female: 369 mg
  Weight Male: 419 mg
[1]; measured conc. 83.3 μg/L
  Fertility rate (%): 76%
  Mortality (%) Female: 8.3%
  Mortality (%) Male: 0%
  Number of fertilized eggs: 1.6
  Number of total eggs: 2.2 ± 0.8 /female/day
  SSC Female: 0 ± 0
  SSC Male: 85 ± 7.0
  VTG (ng/mg of liver) Female: 335 ± 138 ng/mg of liver
  VTG (ng/mg of liver) Male: 319 ± 126 ng/mg of liver
  GSI Female: 11.5%
  GSI Male: 0.87%
  HSI Female: 4.2%
  HSI Male: 2.5%
  Length Female: 32.9 mm
  Length Male: 32.5 mm
  Weight Female: 418 mg
  Weight Male: 374 mg
[1]; 21-day exposure
  effect on fecundity (number of total eggs), in words: statistically significant decrease
